Results published in patent US8299069B2, “2-(2-oxoindoline-3-ylidene)methyl-5-(2-hydroxy-3-morpholin-4-yl-propyl)-6,7-dihydro-1H-pyrrol[3,2-C]pyridine-4(5H)-one compounds and use as protein kinase inhibitors” (Jiangsu Hengrui Medicine Co., Ltd., priority 2007, dated 2012).
pIC50: −log10 of the molar value.

The compounds below were run on HUVEC cell (assay: Cell proliferation inhibition assay (SRB) on HUVEC cells highly expressing VEGFR). Settings: Homo sapiens, 72 h, read-out: IC50 (VEGFR/HUVEC).
Description: The cellular assay described here is used to test anti-angiogenesis and proliferation inhibition activity and effect of the compounds through VEGFR on the cancer cells in vitro. The effect and activity is represented by the IC50 value that kills the cancer cells. The general procedures of the assay are as follows: The Homo sapiens cells that highly expressing VEGFR were chosen and seeded to 96-well cell culture plate at a suitable concentration (e.g., 5000 cells/mL medium). […] Then, the cell culture medium was replaced by fresh one with testing compounds added in it at serial concentrations (general 6 or 7 concentrations). Then the cells were put back to the incubator and cultured for 72 hours continuously. 72 hours later, the treated compounds were assayed for their proliferation status by using Sulforhodamine B (SRB) method. IC50 of compounds on tested cells was calculated by using data of inhibition rate of serial concentrations of the testing compounds.
The following protocol is used to assay the cell toxicity (anti-proliferation activity, which is expressed as IC50 value) of testing compounds of the invention on HUVEC cell: • 1. HUVEC cells were cultured with growth media (DMEM/F12, supplemented with 10% FBS) in 100 mm corning culture plate at 37° C., 5% CO2 till confluency. • 2. HUVEC cells were washed with cold PBS solution, then the cells were harvested by trypsinization and seeded in corning 96-well cell culture plates at a concentration of 50,000 cells/ml, 6 empty wells were left on each plate as plate background. • 3. The cells were cultured in 96-well plates at 37° C., 5% CO2, till 85% confluency. • 4. The compound stock solution was prepared by using DMSO to solve candidate compounds to a concentration of 20 mM. Then DMSO was used to dilute the stock solution to a serial concentration to prepare testing compound solution samples (e.g., 2 mM, 1 mM, 0.2 mM, 20 μM, 2 μM, 0.2 μM). • 5. Cell culture medium (DMEM/F12+10% FBS) was used to dilute the compound solution prepared previously. […] Background absorbance was measured in wells incubated only with growth medium. • 11. […]

Row | SMILES | pIC50
1 | Cc1c(/C=C2\C(=O)Nc3cccc(-c4c(F)cccc4F)c32)[nH]c2c1C(=O)N(C[C@@H](O)CN1CCOCC1)CC2 [Example 20, (S,Z)-2-[4-(2,6-Difluoro-phenyl)-2-oxo-1,2-dihydro-indol-3-ylidenemethyl]-5-(2-hydroxy-3-morpholin-4-yl-propyl)-3-methyl-1,5,6,7-tetrahydro-pyrrolo[3,2-c]pyridin-4-one] | 8.00
2 | Cc1c(/C=C2\C(=O)Nc3cccc(-c4cccc(F)c4F)c32)[nH]c2c1C(=O)N(C[C@H](O)CN1CCOCC1)CC2 [Example 3, 2-[(Z)-4-(2,3-Difluoro-phenyl)-2-oxo-1,2-dihydro-indol-3-ylidenemethyl]-5-[(R)-2-hydroxy-3-morpholin-4-yl-propyl]-3-methyl-1,5,6,7-tetrahydro-pyrrolo[3,2-c]pyridin-4-one] | 6.08
3 | Cc1c(/C=C2\C(=O)Nc3ccc(Cl)cc32)[nH]c2c1C(=O)N(C[C@H](O)CN1CCOCC1)CC2 [Example 2, (R,Z)-2-(5-Chloro-2-oxo-1,2-dihydro-indol-3-ylidenemethyl)-5-(2-hydroxy-3-morpholin-4-yl-propyl)-3-methyl-1,5,6,7-tetrahydro-pyrrolo[3,2-c]pyridin-4-one] | 5.62

Each compound was assayed against recombinant human VEGF-R2 (Homo sapiens, UniProt P35968) (assay: VEGF-R2 kinase assay (ELISA, DELFIA time-resolved fluorescence)). Settings: not given.
Sequence of recombinant human VEGF-R2 (P35968 789-1356 limits assumed): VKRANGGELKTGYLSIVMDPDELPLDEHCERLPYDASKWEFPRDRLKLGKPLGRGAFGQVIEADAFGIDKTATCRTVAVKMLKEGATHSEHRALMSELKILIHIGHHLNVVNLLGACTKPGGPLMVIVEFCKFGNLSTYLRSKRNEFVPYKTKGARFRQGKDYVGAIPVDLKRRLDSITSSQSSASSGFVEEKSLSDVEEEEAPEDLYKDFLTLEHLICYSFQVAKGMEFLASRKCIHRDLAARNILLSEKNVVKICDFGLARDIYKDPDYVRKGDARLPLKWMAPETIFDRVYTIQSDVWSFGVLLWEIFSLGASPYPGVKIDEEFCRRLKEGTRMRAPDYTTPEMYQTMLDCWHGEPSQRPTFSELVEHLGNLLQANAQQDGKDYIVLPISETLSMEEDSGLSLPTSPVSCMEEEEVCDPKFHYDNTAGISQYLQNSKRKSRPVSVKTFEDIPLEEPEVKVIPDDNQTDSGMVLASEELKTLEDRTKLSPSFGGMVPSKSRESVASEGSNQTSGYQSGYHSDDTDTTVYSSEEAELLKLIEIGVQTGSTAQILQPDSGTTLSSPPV

Row | pIC50 | SMILES
4 | 6.96 | COCC(=O)Nc1cc2c(cc1F)/C(=C/c1[nH]c3c(c1C)C(=O)N(C[C@H](O)CN1CCOCC1)CC3)C(=O)N2 [Example 16, (R,Z)-N-{5-Fluoro-3-[5-(2-hydroxy-3-morpholin-4-yl-propyl)-3-methyl-4-oxo-4,5,6,7-tetrahydro-1H-pyrrolo[3,2-c]pyridin-2-ylmethylene]-2-oxo-2,3-dihydro-1H-indol-6-yl}-2-methoxy-acetamide]
5 | 6.00 | Cc1c(/C=C2\C(=O)Nc3ccc(Br)cc32)[nH]c2c1C(=O)N(C[C@H](O)CN1CCOCC1)CC2 [Example 4, (R,Z)-2-(5-Bromo-2-oxo-1,2-dihydro-indol-3-ylidenemethyl)-5-(2-hydroxy-3-morpholin-4-yl-propyl)-3-methyl-1,5,6,7-tetrahydro-pyrrolo[3,2-c]pyridin-4-one]
6 | 8.52 | Cc1c(/C=C2\C(=O)Nc3cc(NC(=O)C(C)(C)O)c(F)cc32)[nH]c2c1C(=O)N(C[C@@H](O)CN1CCOCC1)CC2 [Example 11, (S,Z)-N-{5-Fluoro-3[5-(2-hydroxy-3-morpholin-4-yl-propyl)-3-methyl-4-oxo-4,5,6,7-tetrahydro-1H-pyrrolo[3,2-c]pyridin-2-ylmethylene]-2-oxo-2,3-dihydro-1H-indol-6-yl}-2-hydroxy-2-methyl-propionamide]
7 | 6.89 | COCC(=O)Nc1cc2c(cc1F)/C(=C/c1[nH]c3c(c1C)C(=O)N(C[C@@H](O)CN1CCOCC1)CC3)C(=O)N2 [Example 13, (S,Z)-N-{5-Fluoro-3-[5-(2-hydroxy-3-morpholin-4-yl-propyl)-3-methyl-4-oxo-4,5,6,7-tetrahydro-1H-pyrrolo[3,2-c]pyridin-2-ylmethylene]-2-oxo-2,3-dihydro-1H-indol-6-yl}-2-methoxy-acetamide]
8 | 8.40 | Cc1c(/C=C2\C(=O)Nc3cc(NC(=O)C(C)(C)O)c(F)cc32)[nH]c2c1C(=O)N(C[C@H](O)CN1CCOCC1)CC2 [Example 17, (R,Z)-N-{5-Fluoro-3-[5-(2-hydroxy-3-morpholin-4-yl-propyl)-3-methyl-4-oxo-4,5,6,7-tetrahydro-1H-pyrrolo[3,2-c]pyridin-2-ylmethylene]-2-oxo-2,3-dihydro-1H-indol-6-yl}-2-hydroxy-2-methyl-propionamide]
